The source made the active and inactive calls. The rule behind the calls is not given here.

This series deals with CCRIS mutagenicity, Ames/micronucleus/aberration tests. The series can be described thus: CCRIS mutagenicity studies.
Where [1] appears, read: Test System: AMES SALMONELLA TYPHIMURIUM, Strain/Indicator: TA98, Metabolic Activation: NONE, Method: STANDARD PLATE.
[2] abbreviates: Test System: AMES SALMONELLA TYPHIMURIUM, Strain/Indicator: TA98, Metabolic Activation: RAT, LIVER, S-9, AROCLOR 1254, Method: STANDARD PLATE.
Setting [3] is: Test System: AMES SALMONELLA TYPHIMURIUM, Strain/Indicator: TA100, Metabolic Activation: NONE, Method: STANDARD PLATE.
The mark [4] stands for this setting: Test System: AMES SALMONELLA TYPHIMURIUM, Strain/Indicator: TA100, Metabolic Activation: RAT, LIVER, S-9, AROCLOR 1254, Method: STANDARD PLATE.
Where [5] appears, read: Test System: AMES SALMONELLA TYPHIMURIUM, Strain/Indicator: TA1535, Metabolic Activation: NONE, Method: STANDARD PLATE.
Setting [6] is: Test System: AMES SALMONELLA TYPHIMURIUM, Strain/Indicator: TA1535, Metabolic Activation: RAT, LIVER, S-9, AROCLOR 1254, Method: STANDARD PLATE.
Setting [7] is: Test System: AMES SALMONELLA TYPHIMURIUM, Strain/Indicator: TA1537, Metabolic Activation: NONE, Method: STANDARD PLATE.
Where [8] appears, read: Test System: AMES SALMONELLA TYPHIMURIUM, Strain/Indicator: TA1537, Metabolic Activation: RAT, LIVER, S-9, AROCLOR 1254, Method: STANDARD PLATE.

For `S=C([S-])NCCNC(=S)[S-].[Zn+2]`, the mutagenic call runs as follows: under setting [1], “inactive; negative”; under setting [2], “inactive; negative”; under setting [3], “inactive; negative”; under setting [4], “inactive; negative”; under setting [5], “inactive; negative”; under setting [6], “inactive; negative”. Moreover, the mutagenic call is, setting by setting: under setting [7], “inactive; negative”; under setting [8], “inactive; negative”; (Test System: E. COLI, Strain/Indicator: WP2, Metabolic Activation: NONE, Method: STANDARD PLATE) “inactive; negative”; (Test System: E. COLI, Strain/Indicator: WP2, Metabolic Activation: RAT, LIVER, S-9, AROCLOR 1254, Method: STANDARD PLATE) “inactive; negative”.

For the molecule `Nc1cccc2ncc(F)cc12`, where the note is “Test System: AMES SALMONELLA TYPHIMURIUM, Strain/Indicator: TA100, Metabolic Activation: RAT, LIVER, S-9, PHENOBARBITAL AND 5,6-BENZOFLAVONE, Method: PREINCUBATION”, the mutagenic call was “active; positive”.

Turning to `COc1ccc(S(=O)(=O)n2ncc(Cl)c(Cl)c2=O)cc1`, the mutagenic call under setting [1] was “inactive; negative”; the mutagenic call under setting [2] was “inactive; negative”; the mutagenic call under setting [3] was “inactive; negative”; the mutagenic call under setting [4] is “inactive; negative”; the mutagenic call under setting [5] is “inactive; negative”; the mutagenic call under setting [6] is “inactive; negative”. The mutagenic call under setting [7] is “inactive; negative” and the mutagenic call under setting [8] is “inactive; negative”.
